From PubChem BioAssay (NCI)
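Cultured in 96-well plates, cells were exposed to test compound for 48 hours across five concentrations. GI50 = concentration required for 50% inhibition of growth. TGI: concentration producing complete growth inhibition.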

Key:
Assay in all cases: DTP human tumour cell line panel, 48 h
[1] = tested on: SNB-75 CNS
[2] = tested on: SK-MEL-28 melanoma
[3] = tested on: HCC-2998 colon
[4] = tested on: HCT-15 colon
[5] = tested on: ACHN renal
[6] = tested on: SN12C renal
[7] = tested on: UO-31 renal
[8] = tested on: NCI/ADR-RES ovarian
[9] = tested on: OVCAR-5 ovarian
[10] = tested on: BT-549 breast
[11] = tested on: PC-3 prostate
[12] = tested on: MDA-MB-435
[13] = tested on: SF-295 CNS
[14] = tested on: OVCAR-8 ovarian
[15] = tested on: SF-539 CNS
[16] = tested on: DU-145 prostate
[17] = tested on: KM12 colon
[18] = tested on: RPMI-8226 leukemia
[19] = tested on: CAKI-1 renal
[20] = tested on: T-47D breast
[21] = tested on: SF-268 CNS
[22] = tested on: HCT-116 colon
[23] = tested on: RXF 393 renal
[24] = tested on: OVCAR-3 ovarian
[25] = tested on: MDA-MB-231 breast
[26] = tested on: NCI-H522 lung
[27] = tested on: SK-MEL-2 melanoma
[28] = tested on: U251 CNS
[29] = tested on: A498 renal
[30] = tested on: UACC-257 melanoma
[31] = tested on: MCF7 breast
[32] = tested on: NCI-H226 lung
[33] = tested on: IGROV1 ovarian
[34] = tested on: MALME-3M melanoma
[35] = tested on: SR leukemia
[36] = tested on: HOP-62 NSCLC
[37] = tested on: A549 NSCLC
[38] = tested on: LOX IMVI melanoma
[39] = tested on: SNB-19 CNS
[40] = tested on: SK-MEL-5 melanoma
[41] = tested on: NCI-H460 lung
[42] = tested on: HT29 colon
[43] = tested on: K-562 leukemia
[44] = tested on: OVCAR-4 ovarian
[45] = tested on: MOLT-4 leukemia
[46] = tested on: SK-OV-3 ovarian
[47] = tested on: HL-60(TB) leukemia
[48] = tested on: 786-0 renal
[49] = tested on: HS 578T breast
[50] = tested on: CCRF-CEM leukemia
[51] = tested on: COLO 205 colon
[52] = tested on: SW-620 colon
[53] = tested on: M14 melanoma
[54] = tested on: HOP-92 NSCLC
[55] = tested on: TK-10 renal

## CC(=O)O[C@H]1CC[C@]2(C)[C@H]3CC=C4[C@@H]5CC(C)(C)CC[C@]5(C(=O)NCCNCCN)CC[C@@]4(C)[C@]3(C)CC[C@H]2C1(C)C
[1]
  GI50: 1.36 µM
  TGI: 2.65 µM
[2]
  GI50: 1.71 µM
  TGI: 3.23 µM
[3]
  GI50: 0.624 µM
  TGI: 2.12 µM
[4]
  GI50: 0.282 µM
  TGI: 0.895 µM
[5]
  GI50: 0.196 µM
  TGI: 0.388 µM
[6]
  GI50: 1.67 µM
  TGI: 3.23 µM
[7]
  GI50: 1.28 µM
  TGI: 2.76 µM
[8]
  GI50: 1.65 µM
  TGI: 3.65 µM
[9]
  GI50: 1.64 µM
  TGI: 3.09 µM
[10]
  GI50: 1.68 µM
  TGI: 3.3 µM
[11]
  GI50: 1.1 µM
  TGI: 2.43 µM
[12]
  GI50: 1.34 µM
  TGI: 2.65 µM
[13]
  GI50: 1.77 µM
  TGI: 3.25 µM
[14]
  GI50: 1.7 µM
  TGI: 4.27 µM
[15]
  GI50: 1.51 µM
  TGI: 2.94 µM
[16]
  GI50: 1.29 µM
  TGI: 2.74 µM
[17]
  GI50: 1.64 µM
  TGI: 3.17 µM
[18]
  GI50: 1.2 µM
  TGI: 3.52 µM
[19]
  GI50: 1.25 µM
  TGI: 2.59 µM

## O=C(O)c1cc(-c2ccc(-c3ccc(-c4cc(C(=O)O)c5cc(Cl)ccc5n4)cc3)cc2)nc2ccc(Cl)cc12
[4]
  GI50: 67.2 µM
[7]
  GI50: 32.5 µM
[20]
  GI50: 50.9 µM
[21]
  GI50: 94.7 µM
[22]
  GI50: 52.4 µM
[23]
  GI50: 77.9 µM
[24]
  GI50: 48.8 µM
[25]
  GI50: 46.5 µM
[26]
  GI50: 79.8 µM
[27]
  GI50: 56 µM
[28]
  GI50: 40.9 µM

## CCN(C(=O)CCl)C(C)(C)C(SSSC(c1ccc(Cl)cc1)C(C)(C)N(CC)C(=O)CCl)c1ccc(Cl)cc1 (configuration not stated)
[1]
  GI50: 13.3 µM
  TGI: 29.5 µM
[29]
  GI50: 1.9 µM
  TGI: 7.42 µM
[30]
  GI50: 1.82 µM
  TGI: 3.48 µM
[2]
  GI50: 2.05 µM
  TGI: 4.31 µM
[31]
  GI50: 5.09 µM
  TGI: 21.9 µM
[32]
  GI50: 15 µM
  TGI: 33.4 µM
[33]
  GI50: 10.9 µM
  TGI: 31.5 µM
[3]
  GI50: 11.1 µM
  TGI: 26.6 µM
[34]
  GI50: 2.21 µM
  TGI: 3.97 µM
[35]
  GI50: 2.32 µM
  TGI: 5.15 µM
[4]
  GI50: 2.84 µM
  TGI: 12.8 µM
[36]
  GI50: 8.33 µM
  TGI: 23.4 µM
[5]
  GI50: 4.78 µM
  TGI: 16.9 µM
[6]
  GI50: 12.5 µM
  TGI: 26.4 µM
[37]
  GI50: 15 µM
  TGI: 31.1 µM
[7]
  GI50: 3.88 µM
  TGI: 15.3 µM
[38]
  GI50: 3.1 µM
  TGI: 10.7 µM
[20]
  GI50: 5.3 µM
  TGI: 26.3 µM
[21]
  GI50: 10.5 µM
  TGI: 23.9 µM
[22]
  GI50: 4.47 µM
  TGI: 18.5 µM
[39]
  GI50: 13.9 µM
  TGI: 30.3 µM
[23]
  GI50: 2.95 µM
  TGI: 13.8 µM
[40]
  GI50: 6.92 µM
  TGI: 20.2 µM
[8]
  GI50: 8.31 µM
  TGI: 24 µM
[9]
  GI50: 13.8 µM
  TGI: 27.9 µM
[10]
  GI50: 10.3 µM
  TGI: 23 µM
[12]
  GI50: 2.14 µM
  TGI: 5.49 µM
[41]
  GI50: 7.34 µM
  TGI: 20.9 µM
[24]
  GI50: 8.46 µM
  TGI: 21.6 µM
[42]
  GI50: 2.65 µM
  TGI: 8.23 µM
[13]
  GI50: 2.99 µM
  TGI: 8.93 µM
[43]
  GI50: 1.71 µM
  TGI: 3.59 µM
[44]
  GI50: 5.04 µM
  TGI: 19.6 µM
[45]
  GI50: 4.46 µM
  TGI: 13.9 µM
[46]
  GI50: 15.3 µM
  TGI: 31.5 µM
[47]
  GI50: 2.1 µM
  TGI: 7.92 µM
[14]
  GI50: 10.9 µM
  TGI: 24.1 µM
[48]
  GI50: 13.6 µM
  TGI: 31.2 µM
[49]
  GI50: 3.36 µM
  TGI: 18.8 µM
[25]
  GI50: 3.58 µM
  TGI: 14.6 µM
[50]
  GI50: 2.45 µM
  TGI: 5.93 µM
[26]
  GI50: 2.06 µM
  TGI: 3.87 µM
[15]
  GI50: 3.14 µM
  TGI: 10.9 µM
[27]
  GI50: 6.14 µM
  TGI: 18.7 µM
[16]
  GI50: 11.5 µM
  TGI: 24.2 µM
[51]
  GI50: 7.21 µM
  TGI: 24.8 µM
[52]
  GI50: 3.85 µM
  TGI: 14.6 µM
[17]
  GI50: 10.3 µM
  TGI: 23 µM
[28]
  GI50: 4.72 µM
  TGI: 17.7 µM
[53]
  GI50: 1.91 µM
  TGI: 3.65 µM
[54]
  GI50: 1.29 µM
  TGI: 8.6 µM
[55]
  GI50: 2.5 µM
  TGI: 7.92 µM
[18]
  GI50: 3.99 µM
  TGI: 18.2 µM
[19]
  GI50: 4.09 µM
  TGI: 15.4 µM
